# Columns and labels:
# adenovirus infection = conditions: cited from earlier work
# P600-PEAK-Rapid cells = assay: AAV production from P600 stable pool after Ad5-CMV-SR21 infection, with 2-aminopurine, ddPCR mCherry assay; assay type: cell-based, human
# Description: ddPCR quantitation was based on the method described by Lock et al. (2014) Human Gene Therapy methods 23: 115-125. Two 1 of the lysate was DNAse digested in 20 reactions containing 1× PCR buffer+20 mM Tris pH 8.5+8 units DNAse I at 37° C. for 1 hour 96-well plates in a thermocycler. 2 μl of the DNAse digested samples were diluted with 98 Virus Dilution Buffer (VDB) and 2 μl of this dilution was added to ddPCR reactions containing 1× PCR SuperMix+1× PCR Primer/Probe for the mCherry transgene (See Materials section). ddPCR droplets were formed using the Bio-Rad automated droplet maker. PCR cycling was as follows: 95° C. 10 min; 42× (94° C. 30s, 60° C. 1 min, 72° C. 15s all three at cycling time of 2° C. per s); 98° C. 10 min; 4° C. hold. FAM fluorescence was detected on the Bio-Rad droplet reader as per manufacturer's instructions. The clones that produced the highest DNAse-resistant particles as detected as FAM-fluorescence positive droplets were subjected to expansion and further screening.
# Construct P600 was transfected into Peak-RAPID cells and a stable pool was generated through selection with 0.5 μg/ml puromycin essentially as described for P439 cells above. Cells were passed 1:10 for 6 weeks prior to assaying AAV production.
# 2.5E6 P600-PEAK-Rapid p6 cells were plated into three T25 flasks in 5 mls DMEM+10% FBS and incubated for three days at 37° C. The cells density on the day of infection was determined to be 6.6E6 viable cells in one of the flasks where cells were recovered with TrypLE and counted using Trypan blue exclusion. Media in the two remaining flasks were replaced with […] DMEM+2% FBS containing 2.6E8 Ad5-CMV-SR21 virus particles. The flasks were incubated for 24 hours at 32° C. […] One ml of DMEM+2% FBS was added to the other flask, and both flasks were incubated at 32° C. for 7 additional days. Media was recovered from the flasks, centrifuged at 3,000 rpm for 5 minutes to pellet cells and debris. 2 μl of each sample supernatant was subjected to DNAse digestion and ddPCR quantitation using the mCherry assay as described above.
# [1] = system: recombinase reporter plasmid (P41) with SR21 attP and attB signals; assay: Recombinase reporter assay (Dual Glo firefly/Renilla luciferase) in transfected HEK293 cells; assay type: cell-based, human
# From the text: A vector (P175) (SEQ ID NO:10) was constructed by Gene Synthesis (GENEWIZ, Plainfield, N.J.) to express SR21 recombinase in mammalian cells under control of the CMV promoter and followed by an SV40 polyadenylation signal. The SR21 recombinase open reading frame is the same as SEQ ID NO:3 except that the bacterial translation initiation codon “TTG” is replaced by an “ATG”, and three point-mutations were introduced to destroy restriction endonuclease recognition sites.
# A recombinase reporter plasmid (P41) was also constructed by gene synthesis (GENEWIZ, Plainfield, N.J.) (SEQ ID NO:11; FIG. 4). It encodes a constitutively expressed green fluorescent protein (GFP)—self-cleaving F2A—Renilla luciferase (rLUC) fusion protein driven by the EF1α promoter. It also encodes recombinase activated—mCherry-self cleaving P2A-firefly luciferase (fLUC) reporter gene flanked by SR21 attP (SEQ ID NO:7) and attB (SEQ ID NO:9) signals in the antisense orientation relative to the CMV promoter. When SR21 recombinase recombines the attP and attB signals, the coding region is inverted into the sense orientation and the mCherry-P2A-fLUC protein is expressed (See FIG. 4).
# To measure SR21 recombinase activity in human cells, 75,000 HEK293 cells were plated into each well of 96-well tissue culture plates in 100 of high-glucose DMEM+10% Fetal Bovine Serum. The recombinase reporter plasmid (P041) the SR21 Recombinase expression plasmid (P175)+[…] (to normalize DNA amounts) were complexed with Fugene-HD transfection reagent in OptiMEM medium for 15 minutes at room temperature as shown in Table 1 and transfected into triplicate wells of the plated cells. Plates were incubated at 37° C. for 48 hours.
# Firefly Luciferase (fLUC) and Renilla luciferase (rLUC) was assayed sequentially in transfected wells using the Dual Glo assay kit from Promega. Medium was removed from the transfected wells of the tissue culture plate and 100 μl of a 1:1 mixture of DMEM medium (without phenol red) and the Dual Glo luciferase+fLUC substrate was added. The plate was incubated at room temperature for 10 minutes. The lysate was transferred to an opaque white 96-well plate. fLUC activity was measured using the Envision multilabel reader. Next, 50 μl per well of the Stop-and-Glo buffer+Renilla substrate was added and the plate was incubated with gentle shaking for 10 minutes. The Renilla luciferase signal was read on the same Envision reader.
# [2] = system: Stop Cassette of vector P439 (attP/attB); assay: Stop Cassette removal by SR21 Recombinase, co-transfection of P439 and P175, PCR and sequencing; assay type: cell-based, human; conditions: PEAK-Rapid cells, three days; PCR product sequenced; attL produced
# Description: Media was removed, cells were washed once with D-PBS and then incubated with TrypLE for 5 minutes at 37° C. Cells were transferred to a sterile microfuge tube, pelleted by centrifugation, washed once with 1 ml D-PBS and pelleted again. Episomal plasmids were recovered by alkaline lysis using the Qiagen Spin Miniprep kit designed for isolating plasmids from bacteria.
# To destroy unrecombined plasmid DNA, an aliquot of the recovered DNA was digested with enzyme Spe I-HF in 1× CutSmart Buffer at 37° C. Ihour and 80° C. 20 minutes. The recovered DNA was subjected to PCR amplification with primers P349F3 (SEQ ID NO:32) and P349R9 (SEQ ID NO:33) using NEXT Ultra II Q5 Master Mix with the following cycling conditions: 98° C. 1 min; 35× (98° C. 10s, 72° C. 10s); 5 min 72° C. A single PCR product of the predicted size was observed when subjected to electrophoresis on a 1% agarose gel. The PCR product was purified by size exclusion chromatography using a CHROMA SPIN™+TE-1000 Column. The PCR product was sequenced using the same primers used for PCR (GeneWiz).
Molecule,cytopathic effect of adenovirus infection (adenovirus infection; 10 mM 2-AP treatment 1-2 hours post infection),"toxicity to cells (adenovirus infection; 10 mM 2-AP, for at least three days)","AAV GC/Cell (P600-PEAK-Rapid cells; DMEM + 2% FBS + 1.25 mM 2-AP added 24 hours post infection, 32° C., 7 additional days, media)",effect on AAV production (P600-PEAK-Rapid cells; concentrations above 1.25 mM and addition earlier than 24 hours),"increase in AAV virus production (P600-PEAK-Rapid cells; in the presence of 2-aminopurine versus without, P600 stable pool) [fold]","rLUC ([1]; 100 ng P41 reporter + 100 ng P175, 48 hours, constitutive Renilla luciferase (transfection efficiency))","fLUC ([1]; 100 ng P41 reporter + 100 ng P175 recombinase expression plasmid, 48 hours)",Fold-Increase in fLUC Activity ([1]; reporter + recombinase expression plasmid versus reporter + deoxynucleotides) [fold],SR21 recombinase activity in human cells ([1]; representative of three independent experiments),removal of STOP cassette from plasmid P439 by recombining attP and attB [2]
"Nc1ncc2[nH]cnc2n1 [2-AP, 2-aminopurine]",blocked,nontoxic,"59,356 ± 11,026 GC/Cell",inhibitory,2.5,–,–,–,–,–
"SR21 recombinase: putative serine recombinase from Bacillus safensis strain CCMA-560, SEQ ID NO:2, expressed from plasmid P175 (protein, SR21 Recombinase (WP_029708089.1) Protein Sequence) MELKHIVNSYNVTKIIGYLRRSRQDVEREKRTGEDTLTEQKELMNKILTGIEIPYETRTEIGSGESIEGRPVFKSCLADLRSGKFQAIAVKEITRLSRGSYSDAGEIVNLLNEKRIIIITPYKIYDPRNPVDARQIRFELFMAREEFEMTRERMNGAKFTYAAQGKWISGLAPFGYKLNKRTSRLEPSDEDKVVVKLIFDIFLNGLDGKDLSYTAIATHLSKLQFTTPRGGKRWSKDTVRKILQNEAYMGRVRYKARETTKDGKKVFRPESEHIVVDDAHEPIINKEDFEAVQEKIKNKVPLLPVVTSYEPNELAGICVCSVCGKSLQKFESEYNRKNKDGTSSYFHVKLLICKINKCTSVRYEYVEEAILEYLEQLIALENNKLKAIIEKSMEAAETNNSEKTSEQMLVQANQKQKELENKLTFIFEKFESGIYTDEMFLQRKAAIEKEVADIKKLKQELSMTFEVKEKDVNEFRVNISDVVKFYKESKSRGLKNEKLRSIFDFIVLEMTEKRRGPIPAKFNIYPVLRIPSVVN",–,–,–,–,–,3.4E06 ±,6.6E06 ±,1535,highly active,precisely removed

# Reference: patent US12049638B2, “Synthetic genetic elements for biomanufacture” (Janssen Biotech, Inc., priority 2019, dated 2024)
